# Reference: the supplement of paper PMC9663587
# Compound: CN1CC[C@H](c2c(O)cc(O)c3c(=O)cc(-c4ccccc4Cl)oc23)[C@H](O)C1 [Flavopiridol]
# Test: GR value, 72 h; higher = faster growth (1 = untreated, <0 = killing);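 note: breast cancer and non-malignant breast epithelial lines, nine half-log doses, viable cells counted by Hoechst and LIVE/DEAD dye imaging versus time-zero plates and DMSO controls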
# Conditions: 0.01 µM
row,Cell Line,GR value
1,PDX1258,1.18 GR
2,PDXHCI002,0.999 GR
3,SKBR3,0.823 GR
4,SUM44PE,0.707 GR

# Same assay, conditions: 0.03162 µM
row,Cell Line,GR value
1,MDAMB468,0.898 GR
2,MGH312,0.947 GR
3,PDX1258,0.831 GR
4,PDXHCI002,0.817 GR
5,SKBR3,0.9 GR
6,SUM44PE,0.489 GR

# Same assay, conditions: 0.1 µM
row,Cell Line,GR value
1,MDAMB468,0.662 GR
2,MGH312,0.503 GR
3,PDX1258,0.5 GR
4,PDXHCI002,0.63 GR
5,SKBR3,0.641 GR
6,SUM44PE,-0.0333 GR

# Same assay, conditions: 0.3162 µM
row,Cell Line,GR value
1,MDAMB468,0.213 GR
2,MGH312,-0.521 GR
3,PDX1258,-0.24 GR
4,PDXHCI002,-0.0265 GR
5,SKBR3,-0.0615 GR
6,SUM44PE,-0.573 GR

# Same assay, conditions: 1 µM
row,Cell Line,GR value
1,MDAMB468,-0.426 GR
2,MGH312,-0.945 GR
3,PDX1258,-0.402 GR
4,PDXHCI002,-0.156 GR
5,SKBR3,-0.656 GR

# Compound: CN(C)C(=O)c1cc2cnc(Nc3ccc(N4CCNCC4)cn3)nc2n1C1CCCC1 [LEE011/Ribociclib]
# Test: as above
# Conditions: 0.001 µM
row,Cell Line,GR value
1,MDAMB468,0.985 GR
2,MGH312,1.21 GR
3,PDX1258,1.11 GR
4,PDXHCI002,1.04 GR
5,SKBR3,0.897 GR
6,SUM44PE,0.854 GR

# Same assay, conditions: 0.003162 µM
row,Cell Line,GR value
1,MDAMB468,1.04 GR
2,MGH312,1.13 GR
3,PDX1258,1.12 GR
4,PDXHCI002,1 GR
5,SKBR3,0.728 GR
6,SUM44PE,0.783 GR

# Same assay, conditions: 0.01 µM
row,Cell Line,GR value
1,MDAMB468,0.951 GR
2,MGH312,1.08 GR
3,PDX1258,0.914 GR
4,PDXHCI002,0.903 GR
5,SKBR3,0.774 GR
6,SUM44PE,0.676 GR

# Same assay, conditions: 0.03162 µM
row,Cell Line,GR value
1,MDAMB468,1.01 GR
2,MGH312,1.21 GR
3,PDX1258,1.18 GR
4,PDXHCI002,0.925 GR
5,SKBR3,0.766 GR
6,SUM44PE,0.637 GR

# Same assay, conditions: 0.1 µM
row,Cell Line,GR value
1,MDAMB468,1.05 GR
2,MGH312,0.945 GR
3,PDX1258,1.19 GR
4,PDXHCI002,0.882 GR
5,SKBR3,0.776 GR
6,SUM44PE,0.663 GR

# Same assay, conditions: 0.3162 µM
row,Cell Line,GR value
1,MDAMB468,0.965 GR
2,MGH312,0.964 GR
3,PDX1258,1.11 GR
4,PDXHCI002,0.862 GR
5,SKBR3,0.471 GR
6,SUM44PE,0.636 GR

# Same assay, conditions: 1 µM
row,Cell Line,GR value
1,MDAMB468,0.935 GR
2,MGH312,0.894 GR
3,PDX1258,0.93 GR
4,PDXHCI002,0.828 GR
5,SKBR3,0.582 GR
6,SUM44PE,0.55 GR

# Same assay, conditions: 3.162 µM
row,Cell Line,GR value
1,MDAMB468,1 GR
2,MGH312,0.89 GR
3,PDX1258,1.14 GR
4,PDXHCI002,0.766 GR
5,SKBR3,0.429 GR
6,SUM44PE,0.545 GR

# Same assay, conditions: 10 µM
row,Cell Line,GR value
1,MDAMB468,1.02 GR
2,MGH312,1.33 GR
3,PDX1258,1.02 GR
4,PDXHCI002,0.51 GR
5,SKBR3,0.586 GR
6,SUM44PE,0.378 GR

# Compound: CC(=O)c1c(C)c2cnc(Nc3ccc(N4CCN(CCOCCOCCOCCNC(=O)COc5cccc6c5C(=O)N(C5CCC(=O)NC5=O)C6=O)CC4)cn3)nc2n(C2CCCC2)c1=O [BSJ-03-123]
# Test: as above
# Conditions: 0.001 µM
row,Cell Line,GR value
1,MDAMB468,1 GR
2,MGH312,1.11 GR
3,PDX1258,1.13 GR
4,PDXHCI002,1.08 GR
5,SKBR3,0.911 GR
6,SUM44PE,0.917 GR

# Same assay, conditions: 0.003162 µM
row,Cell Line,GR value
1,MDAMB468,0.923 GR
2,MGH312,1.25 GR
3,PDX1258,0.919 GR
4,PDXHCI002,1.03 GR
5,SKBR3,0.855 GR
6,SUM44PE,0.854 GR

# Same assay, conditions: 0.01 µM
row,Cell Line,GR value
1,MDAMB468,0.902 GR
2,MGH312,1.02 GR
3,PDX1258,1.2 GR
4,PDXHCI002,0.992 GR
5,SKBR3,0.825 GR
6,SUM44PE,0.911 GR

# Same assay, conditions: 0.03162 µM
row,Cell Line,GR value
1,MDAMB468,0.806 GR
2,MGH312,1.22 GR
3,PDX1258,1.29 GR
4,PDXHCI002,0.883 GR
5,SKBR3,0.79 GR
6,SUM44PE,0.8 GR

# Same assay, conditions: 0.1 µM
row,Cell Line,GR value
1,MDAMB468,0.91 GR
2,MGH312,1.12 GR
3,PDX1258,1.08 GR
4,PDXHCI002,0.812 GR
5,SKBR3,0.644 GR
6,SUM44PE,0.722 GR

# Same assay, conditions: 0.3162 µM
row,Cell Line,GR value
1,MDAMB468,0.771 GR
2,MGH312,0.909 GR
3,PDX1258,1.02 GR
4,PDXHCI002,0.771 GR
5,SKBR3,0.75 GR
6,SUM44PE,0.669 GR

# Same assay, conditions: 1 µM
row,Cell Line,GR value
1,MDAMB468,0.636 GR
2,MGH312,0.827 GR
3,PDX1258,0.916 GR
4,PDXHCI002,0.565 GR
5,SKBR3,0.506 GR
6,SUM44PE,0.45 GR

# Same assay, conditions: 3.162 µM
row,Cell Line,GR value
1,MDAMB468,0.476 GR
2,MGH312,0.933 GR
3,PDX1258,0.819 GR
4,PDXHCI002,0.472 GR
5,SKBR3,0.514 GR
6,SUM44PE,0.337 GR

# Same assay, conditions: 10 µM
row,Cell Line,GR value
1,MDAMB468,-0.0278 GR
2,MGH312,-0.91 GR
3,PDX1258,-0.415 GR
4,PDXHCI002,-0.0835 GR
5,SKBR3,-0.35 GR

# Compound: CC(=O)c1c(C)c2cnc(Nc3ccc(N4CCNCC4)cn3)nc2n(C2CCCC2)c1=O
# Test: as above
# Conditions: 0.0003162 µM
row,Cell Line,GR value
1,MDAMB468,0.963 GR
2,MGH312,1.2 GR
3,PDX1258,1.07 GR
4,PDXHCI002,1.09 GR
5,SKBR3,1.05 GR
6,SUM44PE,1.09 GR

# Same assay, conditions: 0.001 µM
row,Cell Line,GR value
1,MDAMB468,1.02 GR
2,MGH312,1.09 GR
3,PDX1258,1.08 GR
4,PDXHCI002,1.09 GR
5,SKBR3,1.03 GR
6,SUM44PE,0.993 GR

# Same assay, conditions: 0.003162 µM
row,Cell Line,GR value
1,MDAMB468,1.02 GR
2,MGH312,1.2 GR
3,PDX1258,1.11 GR
4,PDXHCI002,1.02 GR
5,SKBR3,0.946 GR
6,SUM44PE,1.03 GR

# Same assay, conditions: 0.01 µM
row,Cell Line,GR value
1,MDAMB468,1.05 GR
2,MGH312,1.04 GR
3,PDX1258,1.12 GR
4,PDXHCI002,0.946 GR
5,SKBR3,0.845 GR
6,SUM44PE,1.04 GR

# Same assay, conditions: 0.03162 µM
row,Cell Line,GR value
1,MDAMB468,1.02 GR
2,MGH312,1.09 GR
3,PDX1258,1.1 GR
4,PDXHCI002,0.723 GR
5,SKBR3,0.697 GR
6,SUM44PE,0.784 GR

# Same assay, conditions: 0.1 µM
row,Cell Line,GR value
1,MDAMB468,1.01 GR
2,MGH312,1.21 GR
3,PDX1258,1.05 GR
4,PDXHCI002,0.552 GR
5,SKBR3,0.591 GR
6,SUM44PE,0.588 GR

# Same assay, conditions: 0.3162 µM
row,Cell Line,GR value
1,MDAMB468,1.06 GR
2,MGH312,1.11 GR
3,PDX1258,1.09 GR
4,PDXHCI002,0.427 GR
5,SKBR3,0.434 GR
6,SUM44PE,0.461 GR

# Same assay, conditions: 1 µM
row,Cell Line,GR value
1,MDAMB468,1.05 GR
2,MGH312,1.18 GR
3,PDX1258,1.09 GR
4,PDXHCI002,0.374 GR
5,SKBR3,0.48 GR
6,SUM44PE,0.514 GR

# Same assay, conditions: 3.162 µM
row,Cell Line,GR value
1,MDAMB468,1.05 GR
2,MGH312,1.04 GR
3,PDX1258,0.993 GR
4,PDXHCI002,0.274 GR
5,SKBR3,0.334 GR
6,SUM44PE,0.397 GR

# Compound: CCN1CCN(Cc2ccc(Nc3ncc(F)c(-c4cc(F)c5nc(C)n(C(C)C)c5c4)n3)nc2)CC1
# Test: as above
# Conditions: 0.001 µM
row,Cell Line,GR value
1,MDAMB468,0.94 GR
2,MGH312,1.06 GR
3,PDX1258,1.06 GR
4,PDXHCI002,1.08 GR
5,SKBR3,0.874 GR
6,SUM44PE,0.905 GR

# Same assay, conditions: 0.003162 µM
row,Cell Line,GR value
1,MDAMB468,0.966 GR
2,MGH312,1.17 GR
3,PDX1258,1.1 GR
4,PDXHCI002,1 GR
5,SKBR3,0.866 GR
6,SUM44PE,0.922 GR

# Same assay, conditions: 0.01 µM
row,Cell Line,GR value
1,MDAMB468,0.979 GR
2,MGH312,1.15 GR
3,PDX1258,1.03 GR
4,PDXHCI002,0.785 GR
5,SKBR3,0.623 GR
6,SUM44PE,0.666 GR

# Same assay, conditions: 0.03162 µM
row,Cell Line,GR value
1,MDAMB468,1.04 GR
2,MGH312,1.12 GR
3,PDX1258,0.961 GR
4,PDXHCI002,0.527 GR
5,SKBR3,0.491 GR
6,SUM44PE,0.413 GR

# Same assay, conditions: 0.1 µM
row,Cell Line,GR value
1,MDAMB468,1.06 GR
2,MGH312,0.975 GR
3,PDX1258,0.911 GR
4,PDXHCI002,0.24 GR
5,SKBR3,0.402 GR
6,SUM44PE,0.251 GR

# Same assay, conditions: 0.3162 µM
row,Cell Line,GR value
1,MDAMB468,1.01 GR
2,MGH312,1.03 GR
3,PDX1258,0.719 GR
4,PDXHCI002,0.0121 GR
5,SKBR3,0.337 GR
6,SUM44PE,0.237 GR

# Same assay, conditions: 1 µM
row,Cell Line,GR value
1,MDAMB468,0.811 GR
2,MGH312,0.836 GR
3,PDX1258,0.375 GR
4,PDXHCI002,-0.312 GR
5,SKBR3,0.24 GR
6,SUM44PE,0.201 GR

# Same assay, conditions: 3.162 µM
row,Cell Line,GR value
1,MDAMB468,0.321 GR
2,MGH312,0.308 GR
3,PDX1258,-0.0697 GR
4,PDXHCI002,-0.593 GR
5,SKBR3,0.27 GR
6,SUM44PE,0.134 GR

# Same assay, conditions: 10 µM
row,Cell Line,GR value
1,MDAMB468,-0.34 GR
2,MGH312,-0.466 GR
3,PDX1258,-0.334 GR
4,PDXHCI002,-0.688 GR
5,SKBR3,0.151 GR
6,SUM44PE,-0.763 GR
